Measured values reported in ChEMBL document CHEMBL1909294, “Translating clinical findings into knowledge in drug safety evaluation--drug induced liver injury prediction system (DILIps)” (PLoS Comput Biol, 2011).

Experiments:
Hepatotoxicity [1] = tested on: Hepatotoxicity;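 on HepSE bilirubinemia: bilirubinemia hepatic side effect score drawn from the DILIps training data, a prediction system for drug-induced liver injury; call rule not given here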;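 on HepSE cholelithiasis: hepatic side effect score for cholelithiasis, drawn from the DILIps training data for predicting drug-induced liver injury; call rule not given here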;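 on HepSE elevated liver function tests: hepatic side effect score for raised liver function tests, as recorded in the DILIps training set used for predicting drug-induced liver injury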; on HepSE hepatic failure: call rule not given here;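 on HepSE hepatomegaly: hepatic side effect score for hepatomegaly, taken from the training set of the DILIps drug-induced liver injury prediction system; call rule not given here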;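 on HepSE jaundice: Jaundice-related hepatic side-effect score drawn from the training data of the DILIps (drug-induced liver injury prediction system); call rule not given here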; on HepSE liver disease: call rule not given here
Hepatotoxicity [2] = tested on: Hepatotoxicity; remark: listed apart in the source;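 on HepSE bilirubinemia: bilirubinemia hepatic side effect score drawn from the DILIps training data, a prediction system for drug-induced liver injury; call rule not given here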;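 on HepSE cholelithiasis: hepatic side effect score for cholelithiasis, drawn from the DILIps training data for predicting drug-induced liver injury; call rule not given here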;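 on HepSE elevated liver function tests: hepatic side effect score for raised liver function tests, as recorded in the DILIps training set used for predicting drug-induced liver injury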; on HepSE hepatic failure: call rule not given here;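 on HepSE hepatomegaly: hepatic side effect score for hepatomegaly, taken from the training set of the DILIps drug-induced liver injury prediction system; call rule not given here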;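 on HepSE jaundice: Jaundice-related hepatic side-effect score drawn from the training data of the DILIps (drug-induced liver injury prediction system); call rule not given here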; on HepSE liver disease: call rule not given here
Hepatotoxicity [3] = tested on: Hepatotoxicity; remark: listed apart in the source;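 on HepSE bilirubinemia: bilirubinemia hepatic side effect score drawn from the DILIps training data, a prediction system for drug-induced liver injury; call rule not given here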;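 on HepSE cholelithiasis: hepatic side effect score for cholelithiasis, drawn from the DILIps training data for predicting drug-induced liver injury; call rule not given here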;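 on HepSE elevated liver function tests: hepatic side effect score for raised liver function tests, as recorded in the DILIps training set used for predicting drug-induced liver injury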; on HepSE hepatic failure: call rule not given here;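 on HepSE hepatomegaly: hepatic side effect score for hepatomegaly, taken from the training set of the DILIps drug-induced liver injury prediction system; call rule not given here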;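 on HepSE jaundice: Jaundice-related hepatic side-effect score drawn from the training data of the DILIps (drug-induced liver injury prediction system); call rule not given here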; on HepSE liver disease: call rule not given here
Hepatotoxicity [4] = tested on: Hepatotoxicity; remark: listed apart in the source;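 on HepSE cholelithiasis: hepatic side effect score for cholelithiasis, drawn from the DILIps training data for predicting drug-induced liver injury; call rule not given here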;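 on HepSE elevated liver function tests: hepatic side effect score for raised liver function tests, as recorded in the DILIps training set used for predicting drug-induced liver injury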; on HepSE hepatic failure: call rule not given here;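 on HepSE hepatomegaly: hepatic side effect score for hepatomegaly, taken from the training set of the DILIps drug-induced liver injury prediction system; call rule not given here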;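 on HepSE jaundice: Jaundice-related hepatic side-effect score drawn from the training data of the DILIps (drug-induced liver injury prediction system); call rule not given here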; on HepSE liver disease: call rule not given here
Hepatotoxicity [5] = tested on: Hepatotoxicity; remark: listed apart in the source; on HepSE hepatic failure: call rule not given here; on HepSE liver disease: call rule not given here
Hepatotoxicity [6] = tested on: Hepatotoxicity; remark: listed apart in the source; on HepSE hepatic failure: call rule not given here; on HepSE liver disease: call rule not given here
Hepatotoxicity [7] = tested on: Hepatotoxicity; remark: listed apart in the source
Hepatotoxicity [8] = tested on: Hepatotoxicity; remark: listed apart in the source
Hepatotoxicity [9] = tested on: Hepatotoxicity; remark: listed apart in the source
Hepatotoxicity [10] = tested on: Hepatotoxicity; remark: listed apart in the source
Hepatotoxicity [11] = tested on: Hepatotoxicity; remark: listed apart in the source
Hepatotoxicity [12] = tested on: Hepatotoxicity; remark: listed apart in the source
Hepatotoxicity [13] = tested on: Hepatotoxicity; remark: listed apart in the source
Hepatotoxicity [14] = tested on: Hepatotoxicity; remark: listed apart in the source

Structure (SMILES)	HepSE_hepatic failure (Hepatotoxicity [1])	HepSE_liver disease (Hepatotoxicity [2])	HepSE_hepatomegaly (Hepatotoxicity [3])	HepSE_cholelithiasis (Hepatotoxicity [4])	HepSE_elevated liver function tests (Hepatotoxicity [5])	HepSE_jaundice (Hepatotoxicity [6])	HepSE_bilirubinemia (Hepatotoxicity [7])	HepSE_Combined Scores (Hepatotoxicity [8])	HepSE_cholecystitis (Hepatotoxicity [9])	HepSE_cirrhosis (Hepatotoxicity [10])	HepSE_hepatic necrosis (Hepatotoxicity [11])	HepSE_liver function tests abnormal (Hepatotoxicity [12])	HepSE_liver fatty (Hepatotoxicity [14])	HepSE_hepatic failure (Hepatotoxicity [1]; Liver)	HepSE_liver disease (Hepatotoxicity [2]; Liver)	HepSE_hepatomegaly (Hepatotoxicity [3]; Liver)	HepSE_cholelithiasis (Hepatotoxicity [4]; Liver)	HepSE_jaundice (Hepatotoxicity [6]; Liver)	HepSE_bilirubinemia (Hepatotoxicity [7]; Liver)	HepSE_Combined Scores (Hepatotoxicity [8]; Liver)	other results
CCCCC(=O)N(Cc1ccc(-c2ccccc2-c2nnn[nH]2)cc1)[C@H](C(=O)O)C(C)C	0	0	0	0	0	0	0	1	0	0	0	0	0	–	–	–	–	–	–	–	HepSE_hepatitis (Hepatotoxicity [13]): 1
COc1ccc(-c2ccc3cc(C(=O)O)ccc3c2)cc1C12CC3CC(CC(C3)C1)C2	0	0	0	0	0	0	0	1	0	0	0	0	0	–	–	–	–	–	–	–	HepSE_hepatitis (Hepatotoxicity [13]): 1
CNS(=O)(=O)Cc1ccc2[nH]cc(CCN(C)C)c2c1	0	0	0	0	1	0	0	2	0	0	0	1	0	–	–	–	–	–	–	–	HepSE_hepatitis (Hepatotoxicity [13]): 0
CC1=C(CC(=O)O)c2cc(F)ccc2/C1=C\c1ccc([S+](C)[O-])cc1 (stereo unspecified)	1	0	0	0	0	1	0	4	1	0	0	0	0	–	–	–	–	–	–	–	HepSE_hepatitis (Hepatotoxicity [13]): 1
CCC[C@@]1(CCc2ccccc2)CC(O)=C([C@H](CC)c2cccc(NS(=O)(=O)c3ccc(C(F)(F)F)cn3)c2)C(=O)O1	1	0	0	0	0	1	1	6	0	0	0	1	1	–	–	–	–	–	–	–	HepSE_hepatitis (Hepatotoxicity [13]): 1
Nc1nc(N)c2nc(-c3ccccc3)c(N)nc2n1	0	0	0	0	0	1	0	1	0	0	0	0	0	–	–	–	–	–	–	–	HepSE_hepatitis (Hepatotoxicity [13]): 0
CCN(CC)CC(=O)Nc1c(C)cccc1C [LIDOCAINE]	–	–	–	–	–	–	–	–	–	–	–	–	–	0	0	0	0	0	0	0	HepSE_cholecystitis (Hepatotoxicity [9]; Liver): 0; HepSE_cirrhosis (Hepatotoxicity [10]; Liver): 0; HepSE_hepatic necrosis (Hepatotoxicity [11]; Liver): 0; HepSE_hepatitis (Hepatotoxicity [13]; Liver): 0; HepSE_liver fatty (Hepatotoxicity [14]; Liver): 0
CCOC(=O)N1CCC(=C2c3ccc(Cl)cc3CCc3cccnc32)CC1 [LORATADINE]	–	–	–	–	–	–	–	–	–	–	–	–	–	0	0	0	0	0	0	0	HepSE_cholecystitis (Hepatotoxicity [9]; Liver): 0; HepSE_cirrhosis (Hepatotoxicity [10]; Liver): 0; HepSE_hepatic necrosis (Hepatotoxicity [11]; Liver): 0; HepSE_hepatitis (Hepatotoxicity [13]; Liver): 0; HepSE_liver fatty (Hepatotoxicity [14]; Liver): 0
CN1CC[C@]23c4c5ccc(O)c4O[C@H]2[C@@H](O)C=C[C@H]3[C@H]1C5 [MORPHINE]	–	–	–	–	–	–	–	–	–	–	–	–	–	0	0	0	0	0	0	1	HepSE_cholecystitis (Hepatotoxicity [9]; Liver): 0; HepSE_cirrhosis (Hepatotoxicity [10]; Liver): 0; HepSE_hepatic necrosis (Hepatotoxicity [11]; Liver): 0; HepSE_hepatitis (Hepatotoxicity [13]; Liver): 0; HepSE_liver fatty (Hepatotoxicity [14]; Liver): 0
COc1ccc2cc([C@H](C)C(=O)O)ccc2c1 [NAPROXEN]	–	–	–	–	–	–	–	–	–	–	–	–	–	1	0	0	1	1	0	6	HepSE_cholecystitis (Hepatotoxicity [9]; Liver): 1; HepSE_cirrhosis (Hepatotoxicity [10]; Liver): 0; HepSE_hepatic necrosis (Hepatotoxicity [11]; Liver): 0; HepSE_hepatitis (Hepatotoxicity [13]; Liver): 1; HepSE_liver fatty (Hepatotoxicity [14]; Liver): 0
CN1C(C(=O)Nc2ccccn2)=C(O)c2ccccc2S1(=O)=O [PIROXICAM]	1	0	0	0	0	1	0	3	0	0	0	0	0	–	–	–	–	–	–	–	–
CCCNCC(O)COc1ccccc1C(=O)CCc1ccccc1 (stereo unspecified) [PROPAFENONE]	–	–	–	–	–	–	–	–	–	–	–	–	–	0	0	1	0	1	0	4	HepSE_cholecystitis (Hepatotoxicity [9]; Liver): 0; HepSE_cirrhosis (Hepatotoxicity [10]; Liver): 0; HepSE_hepatic necrosis (Hepatotoxicity [11]; Liver): 0; HepSE_hepatitis (Hepatotoxicity [13]; Liver): 1; HepSE_liver fatty (Hepatotoxicity [14]; Liver): 0
CN1[C@@H]2C[C@@H](OC(=O)[C@H](CO)c3ccccc3)C[C@H]1[C@@H]1O[C@@H]12 [SCOPOLAMINE]	–	–	–	–	–	–	–	–	–	–	–	–	–	0	0	0	0	0	0	0	HepSE_cholecystitis (Hepatotoxicity [9]; Liver): 0; HepSE_cirrhosis (Hepatotoxicity [10]; Liver): 0; HepSE_hepatic necrosis (Hepatotoxicity [11]; Liver): 0; HepSE_hepatitis (Hepatotoxicity [13]; Liver): 0; HepSE_liver fatty (Hepatotoxicity [14]; Liver): 0
Nc1ccc(S(N)(=O)=O)cc1 [SULFANILAMIDE]	–	–	–	–	–	–	–	–	–	–	–	–	–	0	0	0	0	0	0	0	HepSE_cholecystitis (Hepatotoxicity [9]; Liver): 0; HepSE_cirrhosis (Hepatotoxicity [10]; Liver): 0; HepSE_hepatic necrosis (Hepatotoxicity [11]; Liver): 0; HepSE_hepatitis (Hepatotoxicity [13]; Liver): 0; HepSE_liver fatty (Hepatotoxicity [14]; Liver): 0
